What was measured:
[1] = Uptake and release of radiolabelled conjugate 8, tritium levels in long bones; assay type: in vivo, female Sprauge-Dawley rats; conditions: rat, 5 mg/kg intravenous
Method: Uptake and Release of Conjugate 8: A solution was prepared of carbamate conjugate 8 (specific activity=15.4 mCi/mmol) in PBS. The conjugate was administered intravenously to female Sprauge-Dawley rats at 5 mg/kg. Triplicate sets of rats were euthanized at 1, 7, 14 and 28 days and tritium levels in bone were measured by incineration of the long bones in a biological oxidizer. After an initial 1 day uptake of 9.4%, 5.6% of the initial dose remained after 14 days.

[2] = Chemical stability of conjugate 8 in 0.1 N NaOH; assay type: physicochemical; conditions: room temperature, 24 hours

% of Initial 3H Dose Remaining ([1]; 1 day): 9.4% | % of Initial 3H Dose Remaining ([1]; 7 days): 8.0% | % of Initial 3H Dose Remaining ([1]; 14 days, 5 mg/kg): 6.2% | % of Initial 3H Dose Remaining ([1]; 28 days): 5.6% | hydrolysis of the carbamate coupling [2]: not hydrolyzed | hydrolysis of the ethyl ester [2]: essentially quantitatively
SMILES: CCOC(=O)CCCCCCN1C(=O)CC[C@@H]1/C=C/[C@@H](OC(=O)NCCCC(O)(P(=O)(O)O)P(=O)(O)O)C(F)(F)c1ccccc1 [Conjugate 8]

Reference: patent US9611284B2, “Prostaglandin-bisphosphonate conjugate compounds, methods of making same, and uses thereof” (Simon Fraser University, priority 2010, dated 2017)
